Experiments:
Type in all cases: biochemical
[1] = biological target: Pim-1 (Homo sapiens (Human), UniProt P11309); assay: Pim-1 kinase assay; conditions: 1 mM ATP; read-out: Pim1 IC50
Procedure: Supplementation of the STOP buffer with beads and stopping the reactions were done under reduced light. Prior to the stopping reactions STOP buffer with beads was preincubated for 1 h in the dark at room temperature. After stopping the reactions, plates were incubated for 1 h in the dark at room temperature before reading on a PHERAstar FS plate reader (BMG Labtech) under reduced light.

[2] = biological target: Pim-2 (Homo sapiens (Human), UniProt Q9P1W9); assay: Pim-2 kinase assay; conditions: 1 mM ATP; read-out: Pim2 IC50
Pim-2, sequence (Q9P1W9 whole entry): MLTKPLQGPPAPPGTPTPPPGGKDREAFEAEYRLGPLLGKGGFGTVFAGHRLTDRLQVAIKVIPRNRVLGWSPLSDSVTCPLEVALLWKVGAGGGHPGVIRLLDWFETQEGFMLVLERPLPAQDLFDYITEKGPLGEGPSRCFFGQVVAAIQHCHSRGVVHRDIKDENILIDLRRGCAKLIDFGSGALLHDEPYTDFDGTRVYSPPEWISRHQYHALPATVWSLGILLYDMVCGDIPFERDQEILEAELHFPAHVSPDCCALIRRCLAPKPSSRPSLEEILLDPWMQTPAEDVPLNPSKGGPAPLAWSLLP
How it was run: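 Pim-2 (1 nM) with fluorescein-CREBtide ([…]) and 1 mM ATP in Tris pH 7.5, MgCl2, DTT buffer, 2 h at 25 °C. Stopped with EDTA plus Tb-anti-CREB pSer133 antibody; phosphorylation read by TR-FRET after 30 min.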

[3] = biological target: Pim-3 (Homo sapiens (Human), UniProt Q86V86); assay: Pim-3 kinase assay; conditions: 1 mM ATP; read-out: Pim3 IC50
How it was run: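 Human Pim-3 at 1.25 pM phosphorylated […] biotin-BAD peptide with 1 mM ATP for 1 h at 25° C, in pH 7.5 Tris buffer with 5 mM MgCl2 and 5 mM DTT. Reactions were stopped with EDTA buffer containing phospho-Bad (Ser112) antibody and AlphaScreen donor/acceptor beads. Plates were read after 1 h dark incubation at room temperature.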

Pim-1, sequence (P11309 whole entry): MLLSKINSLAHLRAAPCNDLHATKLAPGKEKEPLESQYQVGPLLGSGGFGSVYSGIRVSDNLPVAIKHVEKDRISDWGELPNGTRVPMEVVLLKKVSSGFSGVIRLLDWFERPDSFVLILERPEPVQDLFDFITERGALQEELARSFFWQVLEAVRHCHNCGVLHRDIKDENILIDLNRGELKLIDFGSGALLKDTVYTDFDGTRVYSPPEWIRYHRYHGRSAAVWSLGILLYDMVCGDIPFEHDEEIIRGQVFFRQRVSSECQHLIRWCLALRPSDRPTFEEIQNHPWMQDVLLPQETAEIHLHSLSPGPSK

Row | Compound | IC50 [1] [µM] | IC50 [2] [µM] | IC50 [3] [µM]
1 | Nc1cc(F)c(-c2c(F)cccc2F)nc1CNc1cnccc1N1C[C@@H](N)C[C@@H](C(F)(F)F)C1 [Example 109, 2-[({4-[(3S,5R)-3-Amino-5-(trifluoromethyl)piperidin-1-yl]pyridin-3-yl}amino)methyl]-6-(2,6-difluorophenyl)-5-fluoropyridin-3-amine] | < 0.01 | ≤ 0.1 | ≤ 0.01
2 | C[C@@H]1C[C@H](N)CN(c2ccnc(F)c2NCc2ccc(F)c(-c3c(F)cccc3F)n2)C1 [Example 110, 4-[(3S,5R)-3-Amino-5-methylpiperidin-1-yl]-N-{[6-(2,6-difluorophenyl)-5-fluoropyridin-2-yl]methyl}-2-fluoropyridin-3-amine] | < 0.01 | ≤ 0.1 | ≤ 0.01
3 | CC(Nc1cnccc1N1C[C@H](C)C[C@H](N)C1)c1ccc(F)c(-c2c(F)cccc2F)n1 (stereo partly drawn) [Example 111, 4-[(3S,5R)-3-Amino-5-methylpiperidin-1-yl]-N-{1-[6-(2,6-difluorophenyl)-5-fluoropyridin-2-yl]ethyl}pyridin-3-amine] | < 0.01 | ≤ 0.1 | ≤ 0.01
